Experimental data reported in paper PMC5837865 (Clinical cancer research : an official journal of the …, 2017).
Values after ≈ are worked out from the molar mass of the structure shown. Where two headings read alike, the source gives them in different places.

Assays:
[1] = Stability in simulated gastric fluid; type: in vitro ADME; details: 10 µM, SGF pH 1.2, over 1h, LC-MS/MS
[2] = Stability in simulated intestinal fluid; type: in vitro ADME; details: 10 µM
[3] = target: CYP1A2 (Homo sapiens, UniProt P05177); assay: Cytochrome P450 inhibition; type: biochemical
[4] = target: CYP2A6 (Homo sapiens, UniProt P11509); assay: Cytochrome P450 inhibition; type: biochemical; details: read-out: IC50 CYP2A6
[5] = target: CYP2B6 (Homo sapiens, UniProt P20813); assay: Cytochrome P450 inhibition; type: biochemical; details: read-out: IC50 CYP2B6
[6] = target: CYP2C8 (Homo sapiens, UniProt P10632); assay: Cytochrome P450 inhibition; type: biochemical; details: read-out: IC50 CYP2C8
[7] = target: CYP2C9 (Homo sapiens, UniProt P11712); assay: Cytochrome P450 inhibition; type: biochemical; details: read-out: IC50 CYP2C9
[8] = target: CYP2C19 (Homo sapiens, UniProt P33261); assay: Cytochrome P450 inhibition; type: biochemical; details: read-out: IC50 CYP2C19
[9] = target: CYP2D6 (Homo sapiens, UniProt P10635); assay: Cytochrome P450 inhibition; type: biochemical; details: read-out: IC50 CYP2D6
[10] = target: CYP2E1 (Homo sapiens, UniProt P05181); assay: Cytochrome P450 inhibition; type: biochemical; details: read-out: IC50 CYP2E1
[11] = target: CYP3A4 (Homo sapiens, UniProt P08684); assay: Cytochrome P450 inhibition; type: biochemical; details: read-out: IC50 CYP3A4
[12] = type: in vivo, BALB/c mice; details: for Cmax / time to reach peak plasma concentration: plasma, label = analyte measured
[13] = Acute oral toxicity; type: in vivo, Sprague-Dawley (SD) rats
[14] = test system: PC-3 cells; assay: MTT cell proliferation assay; type: cell-based, human; details: pH 7.4
[15] = test system: PC-3 cells; assay: Clonogenic; type: cell-based, human; details: 2 mg/ml, PC-3, pH 7.4
[16] = test system: PC-3, DU145 and C42B cells; assay: MTT cell survival, prostate cancer lines; type: cell-based, human; details: 0.5 mg/ml, 48h, pH 7.4; range over PC-3, DU145 and C42B
[17] = test system: RWPE-1 cells; assay: MTT cell survival, near-normal prostate cells; type: cell-based; details: 0.5 mg/ml, 48h, pH 7.4, RWPE-1
[18] = test system: MDA-MB-468; assay: MTT cell proliferation assay; type: cell-based; details: MDA-MB-468 (breast)
[19] = test system: OVCAR-3; assay: MTT cell proliferation assay; type: cell-based; details: OVCAR-3 (ovary)
[20] = test system: CFPAC; assay: MTT cell proliferation assay; type: cell-based; details: CFPAC (pancreas)
[21] = test system: PC-3 cells; assay: Intracellular levels of PhosE and Etn by LC-MS/MS; type: cell-based, human; details: PC-3, 1 mg/ml treatment, 48h, pH 7.4
[22] = test system: PC-3-luc xenografts; assay: PC-3-luc prostate cancer xenograft tumor growth; type: in vivo, athymic male BALB/c mice
[23] = test system: DU145 xenografts; assay: DU145 prostate cancer xenograft tumor growth; type: in vivo, athymic male BALB/c mice
[24] = test system: HCT116 xenograft; assay: HCT116 colon cancer xenograft tumor growth; type: in vivo, mice; details: 2 weeks
[25] = test system: CK KD PC-3 cells; assay: MTT cell survival in choline kinase knockdown cells; type: cell-based, human; details: 0.5 mg/ml, CK KD (siRNA) PC-3 cells, 48h
[26] = test system: PC-3 cells; assay: Annexin-V flow cytometry; type: cell-based, human; details: control ~8%
[27] = test system: p53 transcript; assay: RT-PCR transcript levels; type: cell-based, human; details: PC-3, 2 mg/ml, 48h
[28] = test system: HIF1-α transcripts; assay: RT-PCR transcript levels; type: cell-based, human; details: PC-3, 2 mg/ml, 48h
[29] = test system: Ki67; assay: Ki67 immunohistochemistry of tumor sections; type: in vivo, athymic male BALB/c mice; details: PC-3-luc xenografts, 40 mg/kg; control tumors ~62%
[30] = test system: PC-3 cells; assay: Oxygen consumption rate; type: cell-based, human; details: PC-3, 2 mg/ml, 48h, 1 million cells/ml
[31] = test system: PC-3-luc tumors; assay: Glucose and glutamine levels in tumors by LC-MS/MS; type: in vivo, athymic male BALB/c mice; details: 40 mg/kg Etn-treated PC-3-luc tumors
[32] = test system: PC-3 cells; assay: Intracellular glucose and glutamine levels in cultured cells; type: cell-based, human; details: PC-3, 2 mg/ml, 48h
[33] = test system: HIF1-α; assay: HIF1-α protein expression in tumors; type: in vivo, athymic male BALB/c mice; details: PC-3-luc xenografts, Etn-treated
[34] = Etn absorption from formulations of different pH/acid; type: in vivo; details: pH 5/7.4; H3PO4/HCl/H2SO4
[35] = Blood to plasma concentration ratio; type: in vitro ADME; details: BALB/c mice blood
[36] = type: in vivo, BALB/c mice
[37] = test system: cancer cells of varying tissue-origin; assay: Proliferation and colony formation, cancer cells of varying tissue-origin; type: cell-based
[38] = 40 mg/kg oral gavage, pH 5, 4 weeks
[39] = after 4 weeks of 40 mg/kg oral Etn

Sequence of CYP2A6 (P11509 whole entry): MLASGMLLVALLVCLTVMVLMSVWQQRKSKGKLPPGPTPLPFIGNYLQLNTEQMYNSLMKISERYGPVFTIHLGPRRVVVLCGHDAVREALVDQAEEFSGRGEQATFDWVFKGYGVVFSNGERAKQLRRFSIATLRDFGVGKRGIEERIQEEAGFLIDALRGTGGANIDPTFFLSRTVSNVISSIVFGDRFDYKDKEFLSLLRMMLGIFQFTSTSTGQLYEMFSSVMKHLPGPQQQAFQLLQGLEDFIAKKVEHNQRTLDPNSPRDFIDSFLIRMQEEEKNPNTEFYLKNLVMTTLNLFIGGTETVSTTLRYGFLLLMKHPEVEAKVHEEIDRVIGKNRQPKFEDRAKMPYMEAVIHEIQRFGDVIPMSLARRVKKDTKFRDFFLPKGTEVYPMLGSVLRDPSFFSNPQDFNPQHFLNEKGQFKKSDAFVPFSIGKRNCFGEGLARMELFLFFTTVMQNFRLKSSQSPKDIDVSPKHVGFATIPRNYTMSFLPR
Sequence of CYP3A4 (P08684 whole entry): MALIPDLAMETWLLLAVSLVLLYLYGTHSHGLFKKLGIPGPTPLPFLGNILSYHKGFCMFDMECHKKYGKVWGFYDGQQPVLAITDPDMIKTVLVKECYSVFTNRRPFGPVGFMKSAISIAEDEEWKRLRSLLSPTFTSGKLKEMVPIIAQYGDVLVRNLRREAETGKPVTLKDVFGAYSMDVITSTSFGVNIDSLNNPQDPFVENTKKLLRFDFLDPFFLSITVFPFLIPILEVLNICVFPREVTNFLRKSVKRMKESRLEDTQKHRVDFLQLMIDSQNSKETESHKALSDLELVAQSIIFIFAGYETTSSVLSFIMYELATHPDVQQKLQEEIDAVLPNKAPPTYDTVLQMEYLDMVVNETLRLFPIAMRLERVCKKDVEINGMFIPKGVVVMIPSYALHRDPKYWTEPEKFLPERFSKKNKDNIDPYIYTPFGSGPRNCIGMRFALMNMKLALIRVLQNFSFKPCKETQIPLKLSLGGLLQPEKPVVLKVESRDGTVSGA
Sequence of CYP2C8 (P10632 whole entry): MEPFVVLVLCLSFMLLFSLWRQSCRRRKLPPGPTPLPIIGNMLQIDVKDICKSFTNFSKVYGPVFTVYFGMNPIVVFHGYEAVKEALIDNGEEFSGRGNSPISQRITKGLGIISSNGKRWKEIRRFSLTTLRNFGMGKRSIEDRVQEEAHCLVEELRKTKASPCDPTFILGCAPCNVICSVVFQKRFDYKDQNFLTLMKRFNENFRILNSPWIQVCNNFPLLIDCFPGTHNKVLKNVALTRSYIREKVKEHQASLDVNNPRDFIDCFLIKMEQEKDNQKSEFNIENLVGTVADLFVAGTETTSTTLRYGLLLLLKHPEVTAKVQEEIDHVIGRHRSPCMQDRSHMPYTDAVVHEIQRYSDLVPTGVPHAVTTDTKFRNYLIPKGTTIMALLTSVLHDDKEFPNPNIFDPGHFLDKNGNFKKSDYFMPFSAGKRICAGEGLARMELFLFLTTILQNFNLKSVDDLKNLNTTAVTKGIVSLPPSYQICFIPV
Sequence of CYP2C9 (P11712 whole entry): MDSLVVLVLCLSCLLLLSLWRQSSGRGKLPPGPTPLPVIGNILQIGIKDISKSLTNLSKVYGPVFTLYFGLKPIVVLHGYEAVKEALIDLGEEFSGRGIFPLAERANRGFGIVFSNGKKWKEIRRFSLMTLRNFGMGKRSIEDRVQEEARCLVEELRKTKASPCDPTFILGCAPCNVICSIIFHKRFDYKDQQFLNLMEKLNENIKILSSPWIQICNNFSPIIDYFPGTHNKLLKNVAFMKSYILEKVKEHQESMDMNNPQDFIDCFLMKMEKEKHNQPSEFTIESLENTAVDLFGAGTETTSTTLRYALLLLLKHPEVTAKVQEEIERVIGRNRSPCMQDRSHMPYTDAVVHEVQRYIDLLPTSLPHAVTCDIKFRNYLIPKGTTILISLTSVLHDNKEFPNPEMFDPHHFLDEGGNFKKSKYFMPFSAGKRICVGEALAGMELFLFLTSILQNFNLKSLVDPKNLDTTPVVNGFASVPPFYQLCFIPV
Sequence of CYP2E1 (P05181 whole entry): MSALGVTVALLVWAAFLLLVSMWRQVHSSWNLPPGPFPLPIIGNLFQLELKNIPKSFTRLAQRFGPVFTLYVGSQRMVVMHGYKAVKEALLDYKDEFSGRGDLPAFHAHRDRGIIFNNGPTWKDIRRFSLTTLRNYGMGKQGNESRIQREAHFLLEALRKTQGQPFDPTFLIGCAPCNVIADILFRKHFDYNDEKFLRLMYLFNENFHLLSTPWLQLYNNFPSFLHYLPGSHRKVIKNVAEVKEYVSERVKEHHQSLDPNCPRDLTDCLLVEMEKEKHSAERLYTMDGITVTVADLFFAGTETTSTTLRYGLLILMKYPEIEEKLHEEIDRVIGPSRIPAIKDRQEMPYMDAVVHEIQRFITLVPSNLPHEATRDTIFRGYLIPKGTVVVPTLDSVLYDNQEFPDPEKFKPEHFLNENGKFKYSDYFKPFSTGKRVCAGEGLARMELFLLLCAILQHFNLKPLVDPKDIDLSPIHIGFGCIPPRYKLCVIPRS
Sequence of CYP2D6 (P10635 whole entry): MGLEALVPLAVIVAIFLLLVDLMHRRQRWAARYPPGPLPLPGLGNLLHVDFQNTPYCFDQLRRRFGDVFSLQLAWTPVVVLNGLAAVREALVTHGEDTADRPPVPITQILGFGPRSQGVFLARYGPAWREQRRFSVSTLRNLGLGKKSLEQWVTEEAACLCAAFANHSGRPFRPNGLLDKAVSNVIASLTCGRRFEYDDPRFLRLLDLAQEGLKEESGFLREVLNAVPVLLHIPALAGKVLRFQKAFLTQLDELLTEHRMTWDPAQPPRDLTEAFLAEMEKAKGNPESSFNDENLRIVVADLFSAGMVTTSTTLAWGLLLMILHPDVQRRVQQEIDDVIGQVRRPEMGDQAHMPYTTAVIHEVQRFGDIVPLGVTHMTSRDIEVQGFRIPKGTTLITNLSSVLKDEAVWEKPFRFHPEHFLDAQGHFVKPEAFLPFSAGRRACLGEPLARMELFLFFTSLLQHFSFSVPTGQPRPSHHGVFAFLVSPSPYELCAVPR
Sequence of CYP2B6 (P20813 whole entry): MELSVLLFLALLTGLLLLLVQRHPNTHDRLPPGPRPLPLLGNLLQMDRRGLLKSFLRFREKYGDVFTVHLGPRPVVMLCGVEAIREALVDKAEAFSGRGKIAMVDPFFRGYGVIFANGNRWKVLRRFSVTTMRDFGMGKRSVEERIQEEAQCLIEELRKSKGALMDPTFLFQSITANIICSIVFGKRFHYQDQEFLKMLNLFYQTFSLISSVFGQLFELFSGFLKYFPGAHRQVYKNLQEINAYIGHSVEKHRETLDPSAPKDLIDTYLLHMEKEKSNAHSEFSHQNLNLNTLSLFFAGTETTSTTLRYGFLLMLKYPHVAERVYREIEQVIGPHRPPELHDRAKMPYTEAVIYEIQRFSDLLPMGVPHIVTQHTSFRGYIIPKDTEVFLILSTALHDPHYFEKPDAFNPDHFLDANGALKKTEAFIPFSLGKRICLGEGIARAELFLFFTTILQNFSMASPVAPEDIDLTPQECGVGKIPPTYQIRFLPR
Sequence of CYP2C19 (P33261 whole entry): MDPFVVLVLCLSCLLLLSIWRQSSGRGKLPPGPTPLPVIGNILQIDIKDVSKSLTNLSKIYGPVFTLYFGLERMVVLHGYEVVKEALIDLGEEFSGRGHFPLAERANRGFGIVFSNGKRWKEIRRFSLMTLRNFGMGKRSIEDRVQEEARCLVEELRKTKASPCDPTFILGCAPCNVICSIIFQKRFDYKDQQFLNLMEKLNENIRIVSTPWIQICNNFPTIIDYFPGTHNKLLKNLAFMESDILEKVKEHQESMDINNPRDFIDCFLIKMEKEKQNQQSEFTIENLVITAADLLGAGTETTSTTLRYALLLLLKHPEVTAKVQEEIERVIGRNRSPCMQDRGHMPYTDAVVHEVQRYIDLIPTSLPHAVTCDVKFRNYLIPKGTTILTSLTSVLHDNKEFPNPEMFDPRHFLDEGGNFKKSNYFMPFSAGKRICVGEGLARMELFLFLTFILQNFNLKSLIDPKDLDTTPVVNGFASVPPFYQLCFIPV
Sequence of CYP1A2 (P05177 whole entry): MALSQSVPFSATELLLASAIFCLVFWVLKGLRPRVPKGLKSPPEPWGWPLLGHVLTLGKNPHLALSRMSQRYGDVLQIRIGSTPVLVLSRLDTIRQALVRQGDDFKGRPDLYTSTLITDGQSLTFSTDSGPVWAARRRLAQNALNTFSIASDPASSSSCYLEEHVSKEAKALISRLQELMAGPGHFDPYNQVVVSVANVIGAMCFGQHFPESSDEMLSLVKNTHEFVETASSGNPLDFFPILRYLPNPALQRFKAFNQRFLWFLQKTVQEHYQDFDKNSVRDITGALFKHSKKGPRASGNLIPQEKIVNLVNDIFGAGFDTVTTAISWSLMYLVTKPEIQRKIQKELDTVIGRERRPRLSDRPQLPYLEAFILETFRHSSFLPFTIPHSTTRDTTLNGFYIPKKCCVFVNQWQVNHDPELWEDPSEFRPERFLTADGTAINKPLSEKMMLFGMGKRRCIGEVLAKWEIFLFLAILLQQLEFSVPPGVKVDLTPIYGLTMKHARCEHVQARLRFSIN

NCCO [Etn, monoethanolamine]
stability in SGF [1]: stable | stability in SIF ([2]; SIF pH 6.8, over time (0-120 min), LC-MS/MS): remained unchanged | IC50 ([3]; read-out: IC50 CYP1A2): > 100 µM | IC50 [4]: > 100 µM | IC50 [5]: > 100 µM | IC50 [6]: > 100 µM | IC50 [7]: > 100 µM | IC50 [8]: > 100 µM | IC50 [9]: > 100 µM | IC50 [10]: > 100 µM | IC50 [11]: > 100 µM | Cmax of Etn relative to Cmax of PhosE ([12]; after oral Etn 40 mg/kg): 32 fold | Cmax ([12]; after oral Etn 40 mg/kg): 17370 ng/mL | time to reach peak plasma concentration ([12]; after oral Etn 40 mg/kg): 10 min | Cmax ([12]; after oral PhosE 60 mg/kg): 4320 ng/mL | acute toxicity ([13]; single oral dose 5 g/kg (limit dose), male and female rats, monitored one week): does not induce any acute toxicity | survival after one week ([13]; single oral dose 5 g/kg, five male and five female rats): all rats were alive | reduction of cell survival ([14]; 0.5 mg/ml, PC-3, 48h): ~ 38% | reduction in cell proliferation ([14]; 1 mg/ml Etn alone, PC-3, 48h): ~ 33% | half-maximal concentration (IC50), cell proliferation ([14]; PC-3, MTT, 48h): ~ 0.88 mg/ml | decrease in colony numbers [15]: ~ 97% | reduction of cell survival [16]: 30–52% | effect on cell survival [17]: unaffected | IC50, cell proliferation [18]: 550 µg/mL (≈ 9 mM) | IC50, cell proliferation [19]: 290 µg/mL (≈ 4.75 mM) | IC50, cell proliferation [20]: 1900 µg/mL (≈ 31.1 mM) | increase of intracellular PhosE levels relative to control cells [21]: ~ 40 fold | reduction in tumor volume ([22]; 40 mg/kg oral gavage, pH 5 (phosphoric acid), 4 weeks): ~ 67% | reduction in tumor weight [22, 38]: ~ 55% | change in body weight over treatment course ([22]; 40 mg/kg oral, 4 weeks, PC-3-luc tumor bearing mice): no apparent change in body weight | change in intratumoral Etn levels versus control mice [22, 39]: did not observe any significant change | intratumoral PhosE level, increase over control mice [22, 39]: ~ 38% | reduction in tumor volume [23, 38]: ~ 42% | reduction in tumor weight [23, 38]: ~ 29% | change in body weight over treatment course ([23]; 40 mg/kg oral, 4 weeks, DU145 tumor bearing mice): no apparent change in body weight | decrease in tumor volume ([24]; 40 mg/kg oral gavage): ~ 44% | change in body weight over treatment course ([24]; 40 mg/kg oral, HCT116 tumor bearing mice): no apparent change in body weight | decrease in cell viability [25]: ~ 11% | Annexin-V positive cells upon treatment [26]: ~ 25% | increase in p53 transcript levels compared to controls [27]: 1.2 fold | reduction in HIF1-α transcripts levels compared to control cells [28]: 50 fold | Ki67-positive cells in treated tumors [29]: ~ 40% | reduction of OCR compared to controls [30]: ~ 26% | glucose content in tumors versus control [31]: significantly reduced | glutamine content in tumors versus control [31]: significantly reduced | glucose content in cells versus control [32]: significantly reduced | glutamine content in cells versus control [32]: significantly reduced | HIF1-α protein expression in treated versus control tumors [33]: downregulation | dependence of absorption on formulation pH or acid [34]: independent of pH

NCCOP(=O)(O)O [PhosE, phosphoethanolamine]
stability in SGF [1]: stable | decrease in concentration in SIF ([2]; SIF pH 6.8, after 2h): ~ 35% | IC50 [3]: > 100 µM | IC50 [4]: > 100 µM | IC50 [5]: > 100 µM | IC50 [6]: > 100 µM | IC50 [7]: > 100 µM | IC50 [8]: > 100 µM | IC50 [9]: > 100 µM | IC50 [10]: > 100 µM | IC50 [11]: > 100 µM | partitioning into RBCs (blood to plasma concentration ratio) [35]: lack of preferential partitioning into RBCs | Cmax ([12]; after oral Etn 40 mg/kg): 550 ng/mL | time to reach peak plasma concentration ([12]; after oral Etn 40 mg/kg): 10 min | Cmax ([12]; after oral PhosE 60 mg/kg): 1140 ng/mL | oral bioavailability ([12]; oral Etn 40 mg/kg, PhosE 60 mg/kg vs intravenous 2 and 3 mg/kg): 19% | volume of distribution (Vd) ([36]; intravenous PhosE 3 mg/kg): 4.82 L/kg | clearance (CL) ([36]; intravenous, Etn 2 mg/kg, PhosE 3 mg/kg): 101.92 mL/min/kg | effect on colony numbers compared to control cells [15]: ineffective | inhibition of proliferation and colony formation [37]: ineffective | increase of intracellular PhosE levels relative to control cells [21]: ~ 15 fold
